Data as given in patent US9186361B2, “Compounds and compositions for the treatment of parasitic diseases” (Novartis AG, priority 2013, dated 2015).

Experiments:
Format in all cases: cell-based
[1] = tested on: Leishmania donovani axenic amastigote parasites; assay: Assay for Leishmania proliferation in vitro (axenic amastigotes, Cell TiterGlo); details: 48 h, 2 day incubation, read-out: L. donovani amastigotes EC50
Experimental: Leishmania donovani axenic amastigote parasites are grown at 37° C., 5% CO2 in media made of RPMI 1640, 4 mM L-glutamine, 20% heat inactivated FBS, 100 units/ml of penicillin and 100 μg/ml of streptomycin, 23 μM Folic Acid, 100 μM Adenosine, 22 mM D-glucose, 25 mM MES. The pH of media is adjusted to 5.5 at 37° C. using HCl. 20 μL of media is first dispensed into 384 well plates and […] of the compounds of invention in DMSO are added to the plate wells. At the same time control compounds and DMSO are added to plates to serve as the positive and negative controls, respectively. 40 μL of parasite culture (9600 parasites) are then added to the plate wells. The plates are then placed into incubators. After 2 day incubation, 20 μL of Cell TiterGlo (Promega) is added to the plate wells. The luminescence signal of each well is measured using the Envision reader (Perkin Elmer). The percentage inhibition of 50%, EC50, is calculated for each of the compounds.

[2] = tested on: L. donovani HU3 strain in mouse peritoneal macrophages; assay: Proliferation of L. donovani in mouse peritoneal macrophages (SybrGreen, high-content imaging); details: Leishmania donovani, Peritoneal macrophage, 120 h; infected mouse peritoneal macrophages, 5 days; read-out: L. donavani Macrophage EC50
Excerpt: The activity of a compound according to the present invention for inhibition of parasitemai can be assessed by the parasite proliferation assay. The assay measures the increase in the parasite number in the assayed plate well using a DNA intercalating dye, SYBR Green I® dye (INVITROGEN) to stain Leishmania cell nuclei. It is understood that the assays illustrate the invention without in any way limiting the scope of the invention.
L. donovani HU3 strain is propagated by infecting BALBc mice through tail vein injection with 10^7 Leishmania parasites. Infected mice are allowed to develop infection during 9-11 weeks post-infection. During this time, the parasites accumulate in the infected mouse spleens to large numbers, and the infected mice serve as the source of parasites for the in vitro measurement of compound efficacies. To assay a compound for anti-leishmanial activity, peritoneal macrophages isolated from non-infected BALBc mice are seeded into 384-well plates at density 2×10^4 macrophages per well in 25 mL of medium (RPMI1640, 10% fetal serum albumin, 10 mM HEPES, 1 mM sodium pyruvate, 1% Pen/Strep). Subsequently, the seeded plates are placed into an incubator set to maintain 37° C. temperature and atmosphere with 5% CO2. The next day, Leishmania parasites are isolated from the spleens of mice infected for 9-11 weeks and 4×10^5 isolated parasites in […] of the above media are added to each plate well. Plates are then returned into incubators and infection is allowed to proceed for 24 hours. After the infection of macrophages is completed, […] of compounds of the invention in the above medium, which also contains 5% DMSO, are added to plate wells containing infected macrophages. At the same time control compounds (miltefosine and amphotericin B) and DMSO are added to plates to serve as the positive and negative controls, respectively. After the compound addition, the plates are returned into incubator and cells infected with parasites are cultured for 5 days. At the end of cultivation, […] of 8% paraformaldehyde is added to plate wells and incubated for 15 min at room temperature. Following the incubation, the paraformaldehyde from plate wells is aspirated, and […] of PBS containing 0.2% Triton X-100 is added to wells. After 15 min incubation, the solution is aspirated from wells again, and replaced with SybrGreen Dye solution in PBS (1:125,000 dilution). Infected cells are imaged with Evotec Opera high-content microscope, and the number of parasites in well is determined by counting parasite nuclei visualized by staining with SybrGreen dye. The percentage inhibition of 50%, EC50, is calculated for each compound.
The inhibitory efficacy of the compounds of the invention against proliferation of L. donovani in mouse peritoneal macrophages is provided in Table I.

[3] = tested on: Trypanosoma brucei Lister 427 strain; assay: Assay for proliferation of kinetoplastid parasite Trypanosoma brucei (Cell Titer Glo); details: bloodstream form, 48 hours, read-out: T. brucei EC50
Excerpt: The proliferation is quantified by the addition of Cell Titer Glo (Promega®) a luminescent cell viability assay that measures the number of viable cells in culture based on the quantification of cellular ATP amount, which is an indicator of metabolically active cells. The following assay illustrates the invention without in any way limiting the scope of the invention. This parasite proliferation assay measures the increase in parasite growth using an assay that measures ATP activity, Cell Titer Glo®.
Trypanosoma brucei Lister 427 strain is grown in HMI-9 Trypanosome media for T. brucei bloodstream form. 30 μl of HMI-9 media is dispensed into 384 well assay plates. 200 nL of compounds of the invention (in DMSO), including anti-trypanosome controls (Pentamidine and suramin), are then transferred into the assay plates, as well as DMSO alone to serve as a negative control for inhibition. Then 25 μl of a suspension of T. brucei culture in HMI-9 media is dispensed into the assay plates. The final concentration of parasites in culture corresponds to 1.7% of 0.5 uM ATP activity with Cell Titer Glo® in HMI-9 media. The plates are placed in a 37° C. incubator for 48 hours in an atmospheric environment containing 5% CO2. 40 μl of Cell Titer Glo® is dispensed into the plates. The plates are then read for luminescence. The percentage inhibition of 50%, EC50, is calculated for each compound.

[4] = tested on: Trypanosoma cruzi amastigotes cultured in 3T3 fibroblast cells; assay: Assay for proliferation of kinetoplastid parasite Trypanosoma cruzi (beta-galactosidase/CPRG readout); details: NIH3T3, 144 h, Tulahuen strain in 3T3 cells, 6 day incubation, read-out: T cruzi EC50
Excerpt: Compounds of the invention can be assayed to measure their capacity to inhibit proliferation of kinetoplastid parasite Trypanosoma cruzi. The screening procedure is for identifying compounds with inhibitor activity against Trypanosoma cruzi amastigotes cultured in 3T3 fibroblast cells. The assay is done using the mammalian stage (amastigotes) of T. cruzi that replicates in the intracellular space of host cells. The host cells are initially infected with the culture-derived trypomastigotes that rapidly invade and then divide as amastigotes. The protocol uses the Tulahuen strain of T. cruzi that has been engineered to express the E. coli beta-galactosidase gene (Lac-Z) (Antimicr. Agents Chemoth. 40:2592, 1996). This allows for a colorimetric readout by using the substrate CPRG and an absorbance plate reader.
3T3 fibroblast cells are re-suspended in RPMI-1640 medium without phenol red medium supplemented with 10% FBS (heat inactivated), 100 μg/ml penicillin, and 100 μg/ml streptomycin. Forty μL of suspension (1,000 cells) is dispensed into 384-well plates and incubated overnight at 37° C. temperature and in atmosphere containing 5% CO2. The following day, 100 nL of compounds of the invention in DMSO are added to plate wells containing 3T3 cells. At the same time control compounds (benznidazole and nifurtimox) and DMSO are added to plates to serve as the positive and negative controls, respectively. After that, 10 μL of media containing 10,000 T. cruzi trypomastigotes are added to each plate well and plates are placed back into incubators. After 6 day incubation, 10 μL of reagent solution (0.6 mM CPRG, 0.6% NP-40 in PBS) is added to plates and incubated at room temperature for 2 hours. Absorbance is then measured on SpectraMax Gemini fluorimeter to determine relative number of T. cruzi cells present in each plate well. The percentage inhibition of 50%, EC50, is calculated for each compound.

Structure (SMILES)	EC50 [1]	EC50 [2]	EC50 [3]	EC50 [4]
CCOC(=O)Nc1cnc2nc(-c3cc(NC(=O)c4ccco4)ccc3Cl)[nH]c2c1 [Example 6, ethyl N-{2-[2-chloro-5-(furan-2-amido)phenyl]-1H-imidazo[4,5-b]pyridin-6-yl}carbamate]	0.58 µM	1.42 µM	0.034 µM	
COC(=O)Nc1cnc2nc(-c3cc(NC(=O)c4ccco4)ccc3Cl)[nH]c2c1 [Example 9, methyl N-{2-[2-chloro-5-(furan-2-amido)phenyl]-1H-imidazo[4,5-b]pyridin-6-yl}carbamate]	0.95 µM	2.48 µM	0.143 µM	
O=C(Nc1ccc(Cl)c(-c2nc3ncc(NC(=O)C(O)CO)cc3[nH]2)c1)c1ccco1 (stereo not drawn) [Example 18, N-{4-chloro-3-[6-(2,3-dihydroxypropanamido)-1H-imidazo[4,5-b]pyridin-2-yl]phenyl}furan-2-carboxamide]	8.9 µM	16.9 µM	1.72 µM	
CN1CCC(C(=O)Nc2cnc3nc(-c4cc(NC(=O)c5ccco5)ccc4Cl)[nH]c3c2)CC1 [Example 36, N-{2-[2-chloro-5-(furan-2-amido)phenyl]-1H-imidazo[4,5-b]pyridin-6-yl}-1-methylpiperidine-4-carboxamide]	> 25 µM	> 50 µM		19 µM
O=C(Nc1ccc(Cl)c(-c2nc3ncc(NC(=O)C4CC(F)C4)cc3[nH]2)c1)c1ccco1 (stereo not drawn) [Example 38, N-(4-chloro-3-{6-[(3-fluorocyclobutane)amido]-1H-imidazo[4,5-b]pyridin-2-yl}phenyl)furan-2-carboxamide]	2.13 µM	3.7 µM		4.4 µM
COc1ccc(C(=O)Nc2ccc(Cl)c(-c3nc4ncc(NC(=O)OC(C)C)cc4[nH]3)c2)o1 [Example 39, propan-2-yl N-{2-[2-chloro-5-(5-methoxyfuran-2-amido)phenyl]-1H-imidazo[4,5-b]pyridin-6-yl}carbamate]	13.8 µM	17.7 µM		6.7 µM
CC1(C(=O)Nc2cnc3nc(-c4cc(NC(=O)c5ccco5)ccc4Cl)[nH]c3c2)COC1 [Example 43, N-{4-chloro-3-[6-(3-methyloxetane-3-amido)-1H-imidazo[4,5-b]pyridin-2-yl]phenyl}furan-2-carboxamide]	> 25 µM	47.4 µM		> 20 µM
O=C(Nc1ccc(Cl)c(-c2nc3ncc(NC(=O)C4CCNCC4)cc3[nH]2)c1)c1ccco1 [Example 46, N-{2-[2-chloro-5-(furan-2-amido)phenyl]-1H-imidazo[4,5-b]pyridin-6-yl}piperidine-4-carboxamide]	> 25 µM	> 50 µM		> 20 µM
CNS(=O)(=O)Nc1cnc2nc(-c3cc(NC(=O)c4ccco4)ccc3Cl)[nH]c2c1 [Example 52, N-(4-chloro-3-{6-[(methylsulfamoyl)amino]-1H-imidazo[4,5-b]pyridin-2-yl}phenyl)furan-2-carboxamide]	> 25 µM	28.9 µM		> 20 µM
O=C(Nc1cnc2nc(-c3cc(NC(=O)c4ccco4)ccc3Cl)[nH]c2c1)OCCF [Example 53, 2-fluoroethyl N-{2-[2-chloro-5-(furan-2-amido)phenyl]-1H-imidazo[4,5-b]pyridin-6-yl}carbamate]	1.31 µM	1.74 µM		3.2 µM
CS(=O)(=O)Nc1ccc(Cl)c(-c2nc3ncc(NS(C)(=O)=O)cc3[nH]2)c1 [Example 58, N-[2-(2-chloro-5-methanesulfonamidophenyl)-1H-imidazo[4,5-b]pyridin-6-yl]methanesulfonamide]	> 25 µM	> 50 µM		> 20 µM
CC(C)S(=O)(=O)Nc1ccc(Cl)c(-c2nc3ncc(NS(=O)(=O)C(C)C)cc3[nH]2)c1 [Example 59, N-{2-[2-chloro-5-(propane-2-sulfonamido)phenyl]-1H-imidazo[4,5-b]pyridin-6-yl}propane-2-sulfonamide]	> 25 µM	> 22.8 µM		> 20 µM
CCOC(=O)Nc1cnc2nc(-c3cc(NC(=O)c4ccc(C#N)o4)ccc3Cl)[nH]c2c1 [Example 61, ethyl N-{2-[2-chloro-5-(5-cyanofuran-2-amido)phenyl]-1H-imidazo[4,5-b]pyridin-6-yl}carbamate]	2.69 µM	3.13 µM		> 20 µM
O=C(Nc1ccc(Cl)c(-c2nc3ncc(NC(=O)C4CNC4)cc3[nH]2)c1)c1ccco1 [Example 62, N-{2-[2-chloro-5-(furan-2-amido)phenyl]-1H-imidazo[4,5-b]pyridin-6-yl}azetidine-3-carboxamide]	> 25 µM	> 28.8 µM		> 20 µM
NCCC(=O)Nc1cnc2nc(-c3cc(NC(=O)c4ccc(F)o4)ccc3Cl)[nH]c2c1 [Example 73, N-{3-[6-(3-aminopropanamido)-1H-imidazo[4,5-b]pyridin-2-yl]-4-chlorophenyl}-5-fluorofuran-2-carboxamide]	> 25 µM	> 50 µM		> 20 µM
Nc1cnc2nc(-c3cccc(NC(=O)c4ccc(F)o4)c3)[nH]c2c1 [Example 79, N-(3-{6-amino-1H-imidazo[4,5-b]pyridin-2-yl}phenyl)-5-fluorofuran-2-carboxamide]	> 25 µM	24.5 µM		1.46 µM
